What was measured:
C57BLKS/J db/db mice = assay: Glucose removal after oral glucose load (OGTT) in db/db mice, 5-week study; assay type: in vivo; conditions: for Glucose removal rate (% glucose decrease of control) 90 min / Glucose removal rate (% glucose decrease of control) 120 min / Glucose removal rate (% glucose decrease of control) 150 min / Glucose removal rate (% glucose decrease of control) 180 min: OGTT (1 g glucose/kg) in db/db mice after 4 weeks feed-ad-mix, biotin 8 mg/kg BW/day, phytanic acid 300 mg/kg BW/day; for Blood glucose levels during the glucose load compared to the control group: db/db mice, glucose load 1 g/kg, 90-180 min, biotin 8, phytanic acid 300 mg/kg BW/day
Experimental: The efficacy of the combination of biotin and phytanic acid as well as of both compounds alone on glucose removal was tested in a 5-week study in C57BLKS/J db/db mice (n=7−8/group). This model of late type 2 diabetes with severe hyperglycemia is widely used to determine the efficacy of anti-diabetic compounds.
Male db/db mice were obtained from Jackson Laboratory (Bar Harbor, Me., USA). Adult mice aged 8 weeks were used in the experiment. Mice were housed individually in plastic cages with bedding and allowed free access to standard rodent food and tap water. The animal rooms were controlled for temperature (24° C.), humidity (55%), and light (12-h light-dark cycle). The animals were randomized into four groups. Biotin and phytanic acid were administered as feed-ad-mix. Corn oil (1% of diet) served as a carrier substance for biotin and phytanic acid as well as a placebo when used alone. Group 1 received placebo, group 2 received biotin at a dose of 8 mg/kg body weight (BW)/day, group 3 received phytanic acid at a dose of 300 mg/kg BW/day, and group 4 received the combination of biotin and phytanic acid at a doses of 8 and 300 mg/kg BW/day, respectively. After 4 weeks of treatment glucose removal was assessed 90, 120, 150 and 180 minutes after an oral glucose load (1 g/kg body weight). Blood samples were obtained 90, 120, 150, 180 minutes from the tail vein for determination of blood glucose levels. Blood glucose was measured by a glucose analyzer (Glucotrend Premium, Roche Diagnostics, Rotkreuz, Switzerland). All data are expressed as means for animals in each diet group. Statistical significance of the mean differences between dietary groups was tested by one-way analysis of variance (ANOVA). If significant differences were found, the Dunnett's test for multiple comparison was used to compare each group to the control group. P values less than 0.05 were considered significant. All analyses were performed with Statistica (ver. 5.5A, StatSoft, Inc).
GRR is defined as the speed at which glucose is removed from blood and directed to the peripheral tissues. At 90, 120, 150 and 180 minutes after application of the glucose load blood glucose levels in animals treated with the combination of biotin and phytanic acid decreased to a greater extent than excepted by the decrease due to monotherapy with biotin or phytanic acid. […] To evaluate the GRR the glucose levels were expressed as the percent change of glucose levels for each group compared to the control group. The expected GRR is defined as the sum of the GRR exerted by biotin and by phytanic acid when used as a monotherapy.

[1] = tested on: catalytic subunit of glucose-6-phosphatase; assay: Affymetrix GeneChip expression of glucose-6-phosphatase catalytic subunit in H-4-II-E rat liver cells; assay type: cell-based; conditions: H-4-II-E cells, 24 h; 50 μM EGCG, 1 μM biotin, 50 μM cysteamin; Affymetrix Id 1370725_a_at; triplicate
Experimental: The Affymetrix GeneChip® high-density oligonucleotide microarray approach was chosen to determine the global gene expression in H-4-II-E rat liver cells.
H-4-II-E rat liver cells were obtained from the American Type Culture Collection (ATCC) and cultured in Medium 199 (Invitrogen) Basel, Switzerland) supplemented with 10% fetal calf serum in a humidified 5% CO2 atmosphere at 37° C. Cells were regularly passaged at subconfluence and used at low passage numbers. For the final assays, cells were trypsinized, seeded at a density of 1×10^6 cells/well in 6-well cell culture plates and maintained in Medium 199 & 0.1% BSA (Invitrogen) for another 6 h before compounds were applied. EGCG was applied in DMSO; cysteamin was first solved in 1M HCl and then applied to the stimulation medium, biotin was directly dissolved into the medium. After 24 h treatment, total RNA was harvested.
A total number of 24 samples were prepared following the Affymetrix GeneChip® array protocol (Affymetrix, Santa Clara, Calif., USA). Briefly, total cellular RNA was extracted by using Qiagen RNeasy Mini Kit with an on-column RNase-free DNase I digest (Qiagen, Basel, Switzerland). A T7-(T)24 primer (5′-[sequence] [sequence]-(dT)24-3′) was annealed to 10 kg of total RNA and Superscript II reverse transcriptase (400 U) was utilized to synthesize first-strand cDNA in the presence of DTT, dNTPs and 1× reaction buffer. Second strand synthesis was performed by adding E. coli DNA polymerase I (40 U), E. coli ligase (10 U) and RNase H (2 U) in a final reaction containing 1× second strand buffer in the presence of dNTPs. Finally strands were blunted using T4 DNA polymerase (10 U) (Superscript™ Microarray Customized Kit, Invitrogen, Basel, CH). cDNA was purified by phenol/chloroform extraction and subsequently in vitro transcription was carried out for 3 h using T7 RNA polymerase (Megascript™ T7 Kit, Ambion, Tex., USA), incorporating bio-16-UTPs and bio-11-CTPs (Roche Molecular Biochemicals, Penzberg, Germany). […]

[2] = tested on: diabetic KK mice (NIDDM model); assay: Oral glucose tolerance in diabetic KK mice; assay type: in vivo; conditions: biotin orally (2-16 mg/day) or parentally (0.1 mg/day)
Text: (§1) Biotin: Biotin supplementation enhances hepatic glucose clearance which results in a decrease of circulating glucose concentration and induces decrease in the hepatic PEPCK activity. PEPCK is a rate-limiting cytosolic enzyme that catalyses the first committed step of hepatic gluconeogenesis. Decrease of hepatic PEPCK activity results in a decrease in liver glucose output.

[3] = tested on: streptozotocin-diabetic rats (IDDM); assay: Oral glucose tolerance in streptozotocin-diabetic rats; assay type: in vivo; conditions: biotin orally (2-16 mg/day) or parentally (0.1 mg/day)
Text: as §1

[4] = tested on: pre-diabetic Otsuka Long-Evans Tokushima fatty (OLETF) rats (NIDDM); assay: Oral glucose tolerance in pre-diabetic OLETF rats; assay type: in vivo; conditions: biotin orally (2-16 mg/day) or parentally (0.1 mg/day)
Text: as §1

[5] = tested on: type 1 and type 2 diabetic patients; assay: Preliminary human studies, fasting blood glucose after biotin supplementation; assay type: in vivo
Text: as §1

rat primary hepatocytes = assay: Glucose uptake in rat primary hepatocytes; assay type: cell-based; conditions: about 10 to about 100 μM
Text: (§2) Therefore, intake of phytanic acid helps to improve insulin sensitivity and may act as a preventative measure against type 2 diabetes and Syndrome X through activation of PPARs and RXR.

pre-adipocyte cells = assay: Differentiation of pre-adipocyte cells into mature adipocytes; assay type: cell-based; conditions: compared to the specific PPAR-γ agonist ciglitazone
Text: as §2

Row | SMILES | Glucose removal rate (% glucose decrease of control) 90 min (C57BLKS/J db/db mice) [%] | Glucose removal rate (% glucose decrease of control) 120 min (C57BLKS/J db/db mice) [%] | Glucose removal rate (% glucose decrease of control) 150 min (C57BLKS/J db/db mice) [%] | Glucose removal rate (% glucose decrease of control) 180 min (C57BLKS/J db/db mice) [%] | Blood glucose levels during the glucose load compared to the control group (C57BLKS/J db/db mice) | MeanAvgDiff (Mean Relative Expression) of glucose-6-phosphatase catalytic subunit [1] | Oral glucose tolerance [2] | Oral glucose tolerance [3] | Oral glucose tolerance [4] | Fasting blood glucose levels [5] | Uptake of glucose (rat primary hepatocytes) | Effects on differentiation of pre-adipocyte cells into mature adipocytes (pre-adipocyte cells)
1 | O=C(O)CCCC[C@@H]1SC[C@@H]2NC(=O)N[C@@H]21 [Biotin] | 11.6 | 10.2 | 15.3 | 15.0 | Neither biotin nor phytanic acid caused a significant decrease | 516.66 | improved oral glucose tolerance | improved oral glucose tolerance | improved oral glucose tolerance | decreased |  | 
2 | NCCS [Cysteamin, cysteamine] |  |  |  |  |  | 447.42 |  |  |  |  |  | 
3 | O=C(O[C@@H]1Cc2c(O)cc(O)cc2O[C@@H]1c1cc(O)c(O)c(O)c1)c1cc(O)c(O)c(O)c1 [EGCG, Epigallocatechin gallate] |  |  |  |  |  | 484.8 |  |  |  |  |  | 
4 | CC(C)CCCC(C)CCCC(C)CCCC(C)CC(=O)O (stereo not shown) [Phytanic acid, 3,7,11,15-tetramethylhexadecanoic acid] | 9.7 | 12.5 | 14.6 | 15.2 | Neither biotin nor phytanic acid caused a significant decrease |  |  |  |  |  | enhances uptake of glucose | only minor effects
